According to patent US10364216B2, “Alkenyl sulfate ester or salt thereof” (Kao Corporation, priority 2013, dated 2019):
Where a name gives a salt, the structure may show the parent alone.

Assays:
[1] = Sweetness adjusting action on sucrose, aspartame, sucralose, glycyrrhizin (simultaneous intake); type: in vivo, human; details: 5 mM, taken simultaneously with sweetener
Method: To seven examiners, four kinds of 10 mL aqueous sucrose standard solutions (2.5, 5.0, 7.5 and 10.0 wt %) were presented. The examiners kept each of the solutions in their mouth for 5 seconds or so, and then spat the solution out, and were asked to consider the sweetness intensity at that time (0 to 15) to be 2.5, 5, 7.5 and 10, respectively. Next, the examiners kept 10 mL aqueous solution (7.5 wt %) of sucrose in their mouth for 5 seconds or so without knowing the kind and the concentration of the sweetener, and then spat the solution out, and compared the sweetness intensity at that time with that of the aqueous sucrose standard solution, and evaluated the sweetness intensity with a number in a range of 0 to 15. In addition, after 30 seconds, the examiners kept 10 mL pure water in their mouth, and then spat the solution out, and compared the sweetness intensity felt at that time with that of the aqueous sucrose standard solution, and evaluated the sweetness intensity in the same manner. Subsequently, the examiners were presented with 10 mL aqueous sucrose solution containing 5 mM trans-3-octenyl sulfate (7.5 wt %), and kept it in their mouth for 5 seconds or so, and then spat the solution out, and compared the sweetness intensity at that time with the sweetness intensity of the aqueous sucrose standard solution, and evaluated the sweetness intensity in the same manner. In addition, immediately after that, the examiners kept 10 mL pure water in their mouth for 5 seconds or so, and then spat the solution out, and compared the sweetness intensity at that time with that of the aqueous sucrose standard solution, and evaluated the sweetness intensity in the same manner. In addition, after 30 seconds, the examiners kept 10 mL pure water in their mouth, and then spat the solution out, and compared the sweetness intensity felt at that time with that of the aqueous sucrose standard solution, and evaluated the sweetness intensity in the same manner.
To seven examiners, 4 kinds of 10 mL aqueous sucrose standard solutions (2.5, 5.0, 7.5 and 10.0 wt %) were presented. The examiners kept each of the solutions in their mouth for 5 seconds or so, and then spat the solution out, and were asked to consider the sweetness intensity at that time (0 to 15) to be 2.5, 5, 7.5 and 10, respectively. Next, the examiners kept 10 mL aqueous solution of aspartame (494 ppm) in their mouth for 5 seconds or so without knowing the kind and the concentration of the sweetener, and then spat the solution out, and compared the sweetness intensity at that time with that of the aqueous sucrose standard solution, and evaluated the sweetness intensity with a number in a range of 0 to 15. The concentration of aspartame was prepared to have the same sweetness intensity as that of the aqueous sucrose solution (7.5 wt %) in accordance with the reference (Schiffman, S. S. et al. Chemical senses, 1999, 24, 439-447.). In addition, after 30 seconds, the examiners kept 10 mL pure water in their mouth, and then spat the solution out, and compared the sweetness intensity felt at that time with that of the aqueous sucrose standard solution, and evaluated the sweetness intensity in the same manner. Subsequently, the examiners were presented with 10 mL aqueous solution of aspartame containing 5 mM trans-3-octenyl sulfate (494 ppm), and kept it in their mouth for 5 seconds or so, and then spat the solution out, and compared the sweetness intensity at that time with the sweetness intensity of the sucrose standard solution, and evaluated the sweetness intensity in the same manner. In addition, after 30 seconds, the examiners kept 10 mL pure water in their mouth, and then spat the solution out, and compared the sweetness intensity felt at that time with that of the aqueous sucrose standard solution, and evaluated the sweetness intensity in the same manner. […]

[2] = tested on: oocytes not expressing ENaC; assay: Control: inward current in oocytes not expressing ENaC; type: cell-based, Xenopus; details: same procedure
Method: Inhibition activity of ENaC expressed in Xenopus oocytes was measured according to the method described in “The journal of biological chemistry, 284 (2): pages 792-798 (2009)”. Specifically, trans-3-octenyl sulfate was added to oocytes expressed with ENaC complex, and the activity of ENaC was analyzed electrophysiologically in accordance with the procedures described below.
Two micro-glass electrodes were inserted into the oocyte, and the membrane potential was fixed at −60 mV. At this time, Na^+ ion influx induced by ENaC complex in a constantly active state was measured with replacement to change of the current amount. Namely, in 115 mM NaCl solution (115 mM NaCl, 2.5 mM KCl, 1.8 mM CaCl2, 1 mM NaHCO3, 1 mM MgCl2 and 10 mM HEPES, pH 7.4) and under circumstances where inward current was caused by the oocytes, trans-3-octenyl sulfate dissolved in the same solution was administered.
This effect was similar to that of an existing ENaC inhibitor amiloride.

CCCC/C=C/CCOS(=O)(=O)O [trans-3-octenyl sulfate]
Effect on aftertaste of sweetness remaining in the mouth [1]: reinforces the aftertaste of sweetness remaining in the mouth | Effect on first taste of sweetness immediately after taking sucrose, aspartame, sucralose or glycyrrhizin [1]: inhibits the first taste of sweetness | Effect on inward current in oocytes not expressing ENaC [2]: not recognized
